Data reported in patent US20250353864A1, “INDAZOLE CONTAINING MACROCYCLES AND THEIR USE” (BLOSSOMHILL THERAPEUTICS, INC., priority 2022, published 2025).
Read-outs that look alike come from different tables or passages of the source. One block for each molecule: values may come before it.

Tests used:
[1] = cc_pd bond
[2] = from C=Cc1nn(C2CCCCO2)c2ccc(-c3cnn(C)c3O[C@H](CC)CN(C)Cc3c(I)c(OCC)nn3CCO[Si](C)(C)C(C)(C)C)cc12; cc_pd bond; 15-membered ring; Pd(OAc)2/TBAC/NaHCO3; DMF; 97.8 mM; 80.0 °C; 1.0 h
[3] = cc_pd bond; 15-membered ring; Pd(dppf)Cl2/Cs2CO3; 1,4-dioxane/H2O 5:1; 127.0 mM; 90.0 °C
[4] = target: CLK1 (Homo sapiens (Human), UniProt P49759); test: Inhibition of CLK1 kinase activity evaluated at Nanosyn (ADP-Glo); type: biochemical; settings: ADP-Glo luminescence
In short: (§1)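 ADP-Glo luminescence (40 min depletion, 10 min detection) quantifies ADP from ATP-initiated phosphorylation of substrate by each CLK isoform in HEPES pH 7.5 buffer, 1% DMSO, assay-specific incubation. %-inhibition calculated against uninhibited and enzyme-free controls.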

[5] = target: CLK4 (Homo sapiens (Human), UniProt Q9HAZ1); test: Inhibition of CLK4 kinase activity evaluated at Nanosyn (ADP-Glo); type: biochemical; settings: ADP-Glo luminescence
In short: as §1

[6] = target: EGFR L858R/T790M mutant (Homo sapiens (Human), UniProt P00533, L858R/T790M); test: HotSpot radiometric kinase assay, EGFR L858R/T790M mutant; type: biochemical; settings: 10 μM ATP
In short: (§2)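 Radiometric filter-binding assay with EGFR mutant kinase/substrate pairs in 20 mM Hepes pH 7.5 with Mg, EGTA, Brij35, BSA, Na3VO4, DTT, 1% DMSO. Compound preincubated ~20 min, then ATP/^33P-ATP added at 10 μM final. Reaction 120 min at room temperature, spotted on P81 paper; IC50 from curve fits.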

[7] = target: EGFR L858R/T790M/C797S mutant (Homo sapiens (Human), UniProt P00533, C797S/L858R/T790M); test: HotSpot radiometric kinase assay, EGFR L858R/T790M/C797S mutant; type: biochemical; settings: 10 μM ATP
In short: as §2

[8] = target: EGFR L858R mutant (Homo sapiens (Human), UniProt P00533, L858R); test: HotSpot radiometric kinase assay, EGFR L858R mutant; type: biochemical; settings: 10 μM ATP
In short: as §2

[9] = target: ALK (Homo sapiens (Human), UniProt Q9UM73); test: HotSpot radiometric kinase assay, inhibition of ALK kinase activity; type: biochemical; settings: 10 μM ATP
In short: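 Radiometric filter-binding assay in which kinase and substrate in pH 7.5 Hepes buffer (1% DMSO) were preincubated with compound ~20 min before 10 μM ATP with 33P-ATP was added. Reactions ran 120 min at room temperature, were spotted on P81 paper and washed in phosphoric acid, and IC50 came from curve fits.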

[10] = target: EGFR Δ746-750/C797S mutant (Homo sapiens (Human), UniProt P00533, C797S/DEL746-750); test: HotSpot radiometric kinase assay, EGFR Δ746-750/C797S mutant; type: biochemical; settings: 10 μM ATP
In short: as §2

[11] = target: EGFR WT (Homo sapiens (Human), UniProt P00533); test: HotSpot radiometric kinase assay (Reaction Biology), EGFR WT; type: biochemical; settings: 10 μM ATP
In short: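 10 μM ATP (33P-labelled, final); 120 min RT; P81 filter capture, 0.75% phosphoric acid washes. Cpd preincubated ~20 min with enzyme/substrate, 20 mM Hepes pH 7.5, 10 mM MgCl2, 1% DMSO. IC50 by curve fit.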

[12] = target: CLK2 (Homo sapiens (Human), UniProt P49760); test: Inhibition of CLK2 kinase activity evaluated at Nanosyn (ADP-Glo); type: biochemical; settings: ADP-Glo luminescence
In short: as §1

[13] = target: EGFR Δ746-750 mutant (Homo sapiens (Human), UniProt P00533, DEL746-750); test: HotSpot radiometric kinase assay, EGFR Δ746-750 mutant; type: biochemical; settings: 10 μM ATP
In short: as §2

[14] = target: CLK3 (Homo sapiens (Human), UniProt P49761); test: Inhibition of CLK3 kinase activity evaluated at Nanosyn (ADP-Glo); type: biochemical; settings: ADP-Glo luminescence
In short: as §1

[15] = target: EGFR (D770_N771insNPG) (Homo sapiens (Human), UniProt P00533, INS770NPG); test: HotSpot radiometric kinase assay, EGFR (D770_N771insNPG); type: biochemical; settings: 10 μM ATP, read-out: EGFR (Δ770_N771insNPG) IC50
In short: as §2

EGFR L858R/T790M/C797S mutant, sequence (P00533 25-1210 T790M/C797S/L858R): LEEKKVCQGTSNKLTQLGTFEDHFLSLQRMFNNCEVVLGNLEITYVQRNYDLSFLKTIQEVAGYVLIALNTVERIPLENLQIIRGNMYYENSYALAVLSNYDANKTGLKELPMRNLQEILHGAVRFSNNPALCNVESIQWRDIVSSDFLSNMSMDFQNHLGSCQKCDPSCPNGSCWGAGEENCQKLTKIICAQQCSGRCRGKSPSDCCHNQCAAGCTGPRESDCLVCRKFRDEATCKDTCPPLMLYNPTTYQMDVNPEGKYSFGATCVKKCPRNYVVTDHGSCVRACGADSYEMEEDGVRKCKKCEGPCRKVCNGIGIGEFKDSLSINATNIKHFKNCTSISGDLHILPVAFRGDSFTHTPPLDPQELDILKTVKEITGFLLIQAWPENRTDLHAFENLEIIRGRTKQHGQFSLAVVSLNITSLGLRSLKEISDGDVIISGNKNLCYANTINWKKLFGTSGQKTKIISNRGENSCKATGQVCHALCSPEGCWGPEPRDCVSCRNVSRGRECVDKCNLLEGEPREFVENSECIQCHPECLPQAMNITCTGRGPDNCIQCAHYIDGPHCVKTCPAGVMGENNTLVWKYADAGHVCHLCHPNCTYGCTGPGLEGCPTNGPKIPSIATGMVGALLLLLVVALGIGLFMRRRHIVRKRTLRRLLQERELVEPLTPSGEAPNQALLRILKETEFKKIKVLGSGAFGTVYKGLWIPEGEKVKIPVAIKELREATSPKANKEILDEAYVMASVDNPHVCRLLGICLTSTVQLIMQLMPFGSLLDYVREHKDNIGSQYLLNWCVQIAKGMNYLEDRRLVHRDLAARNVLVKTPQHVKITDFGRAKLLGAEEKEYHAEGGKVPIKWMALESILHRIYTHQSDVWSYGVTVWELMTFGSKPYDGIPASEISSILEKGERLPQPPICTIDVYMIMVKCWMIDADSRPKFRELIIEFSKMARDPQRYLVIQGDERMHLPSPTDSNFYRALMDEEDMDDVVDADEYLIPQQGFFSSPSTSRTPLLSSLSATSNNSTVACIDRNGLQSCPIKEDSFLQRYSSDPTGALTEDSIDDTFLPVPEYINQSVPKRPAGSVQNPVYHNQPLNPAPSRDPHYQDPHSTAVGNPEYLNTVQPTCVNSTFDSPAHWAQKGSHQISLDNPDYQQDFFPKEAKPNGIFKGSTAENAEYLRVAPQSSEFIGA
EGFR Δ746-750/C797S mutant, sequence (P00533 other isoform, or with tags, fused parts or gaps C797S/del 1-668/del 746-750 limits assumed): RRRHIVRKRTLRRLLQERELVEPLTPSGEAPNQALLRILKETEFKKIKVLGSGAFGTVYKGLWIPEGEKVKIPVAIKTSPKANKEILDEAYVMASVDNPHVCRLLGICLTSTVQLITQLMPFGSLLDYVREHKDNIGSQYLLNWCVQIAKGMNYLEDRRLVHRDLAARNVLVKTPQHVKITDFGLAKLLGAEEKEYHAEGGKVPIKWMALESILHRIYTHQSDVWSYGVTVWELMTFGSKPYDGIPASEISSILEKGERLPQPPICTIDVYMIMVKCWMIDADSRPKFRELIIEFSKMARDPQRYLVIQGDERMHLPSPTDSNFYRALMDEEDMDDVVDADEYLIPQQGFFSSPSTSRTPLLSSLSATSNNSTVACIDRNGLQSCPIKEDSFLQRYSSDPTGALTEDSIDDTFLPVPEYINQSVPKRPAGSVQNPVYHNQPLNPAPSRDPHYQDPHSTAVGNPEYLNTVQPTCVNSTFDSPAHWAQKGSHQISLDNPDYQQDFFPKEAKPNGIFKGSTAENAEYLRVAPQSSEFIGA
ALK, sequence (Q9UM73 19-1620): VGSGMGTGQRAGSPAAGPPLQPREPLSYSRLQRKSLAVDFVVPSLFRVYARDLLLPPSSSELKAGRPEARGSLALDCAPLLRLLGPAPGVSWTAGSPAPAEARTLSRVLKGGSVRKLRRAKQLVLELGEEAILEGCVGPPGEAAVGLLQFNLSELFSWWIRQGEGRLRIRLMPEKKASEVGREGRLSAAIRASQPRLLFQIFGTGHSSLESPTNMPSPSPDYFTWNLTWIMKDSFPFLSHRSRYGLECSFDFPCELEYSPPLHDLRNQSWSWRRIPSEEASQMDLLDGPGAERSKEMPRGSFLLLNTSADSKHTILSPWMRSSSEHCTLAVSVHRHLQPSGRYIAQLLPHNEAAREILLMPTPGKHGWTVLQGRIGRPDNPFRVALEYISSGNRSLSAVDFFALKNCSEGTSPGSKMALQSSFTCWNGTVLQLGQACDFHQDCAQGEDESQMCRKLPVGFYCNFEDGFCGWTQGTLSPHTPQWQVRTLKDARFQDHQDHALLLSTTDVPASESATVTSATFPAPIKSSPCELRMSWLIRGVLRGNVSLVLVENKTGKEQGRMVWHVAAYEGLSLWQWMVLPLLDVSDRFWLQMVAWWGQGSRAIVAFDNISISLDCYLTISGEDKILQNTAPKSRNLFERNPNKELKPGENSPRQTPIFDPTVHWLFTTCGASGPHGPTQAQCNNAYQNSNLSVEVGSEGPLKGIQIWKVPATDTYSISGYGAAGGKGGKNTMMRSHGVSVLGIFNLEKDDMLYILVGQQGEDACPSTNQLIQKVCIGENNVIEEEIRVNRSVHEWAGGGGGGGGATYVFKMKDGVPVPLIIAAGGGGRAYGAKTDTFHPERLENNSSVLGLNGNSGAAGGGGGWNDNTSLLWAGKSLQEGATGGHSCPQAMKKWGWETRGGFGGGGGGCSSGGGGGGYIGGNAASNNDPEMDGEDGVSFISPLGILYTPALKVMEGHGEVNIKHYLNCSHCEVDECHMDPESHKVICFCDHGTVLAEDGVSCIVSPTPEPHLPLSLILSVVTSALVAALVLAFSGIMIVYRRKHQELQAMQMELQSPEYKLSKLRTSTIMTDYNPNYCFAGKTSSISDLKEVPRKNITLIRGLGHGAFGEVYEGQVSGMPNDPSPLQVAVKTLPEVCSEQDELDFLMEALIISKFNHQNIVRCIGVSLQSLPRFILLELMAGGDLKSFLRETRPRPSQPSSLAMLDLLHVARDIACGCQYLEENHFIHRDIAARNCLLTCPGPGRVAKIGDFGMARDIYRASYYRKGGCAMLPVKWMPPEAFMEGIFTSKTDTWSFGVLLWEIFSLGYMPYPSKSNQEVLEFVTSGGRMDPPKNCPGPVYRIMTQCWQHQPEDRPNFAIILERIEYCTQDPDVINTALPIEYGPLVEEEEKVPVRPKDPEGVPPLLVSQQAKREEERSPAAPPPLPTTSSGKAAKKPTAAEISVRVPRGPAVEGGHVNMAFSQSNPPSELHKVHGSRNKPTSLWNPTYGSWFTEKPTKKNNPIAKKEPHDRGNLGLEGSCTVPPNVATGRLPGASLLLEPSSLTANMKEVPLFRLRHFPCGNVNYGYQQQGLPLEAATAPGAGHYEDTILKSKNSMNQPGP
EGFR L858R mutant, sequence (P00533 25-1210 L858R): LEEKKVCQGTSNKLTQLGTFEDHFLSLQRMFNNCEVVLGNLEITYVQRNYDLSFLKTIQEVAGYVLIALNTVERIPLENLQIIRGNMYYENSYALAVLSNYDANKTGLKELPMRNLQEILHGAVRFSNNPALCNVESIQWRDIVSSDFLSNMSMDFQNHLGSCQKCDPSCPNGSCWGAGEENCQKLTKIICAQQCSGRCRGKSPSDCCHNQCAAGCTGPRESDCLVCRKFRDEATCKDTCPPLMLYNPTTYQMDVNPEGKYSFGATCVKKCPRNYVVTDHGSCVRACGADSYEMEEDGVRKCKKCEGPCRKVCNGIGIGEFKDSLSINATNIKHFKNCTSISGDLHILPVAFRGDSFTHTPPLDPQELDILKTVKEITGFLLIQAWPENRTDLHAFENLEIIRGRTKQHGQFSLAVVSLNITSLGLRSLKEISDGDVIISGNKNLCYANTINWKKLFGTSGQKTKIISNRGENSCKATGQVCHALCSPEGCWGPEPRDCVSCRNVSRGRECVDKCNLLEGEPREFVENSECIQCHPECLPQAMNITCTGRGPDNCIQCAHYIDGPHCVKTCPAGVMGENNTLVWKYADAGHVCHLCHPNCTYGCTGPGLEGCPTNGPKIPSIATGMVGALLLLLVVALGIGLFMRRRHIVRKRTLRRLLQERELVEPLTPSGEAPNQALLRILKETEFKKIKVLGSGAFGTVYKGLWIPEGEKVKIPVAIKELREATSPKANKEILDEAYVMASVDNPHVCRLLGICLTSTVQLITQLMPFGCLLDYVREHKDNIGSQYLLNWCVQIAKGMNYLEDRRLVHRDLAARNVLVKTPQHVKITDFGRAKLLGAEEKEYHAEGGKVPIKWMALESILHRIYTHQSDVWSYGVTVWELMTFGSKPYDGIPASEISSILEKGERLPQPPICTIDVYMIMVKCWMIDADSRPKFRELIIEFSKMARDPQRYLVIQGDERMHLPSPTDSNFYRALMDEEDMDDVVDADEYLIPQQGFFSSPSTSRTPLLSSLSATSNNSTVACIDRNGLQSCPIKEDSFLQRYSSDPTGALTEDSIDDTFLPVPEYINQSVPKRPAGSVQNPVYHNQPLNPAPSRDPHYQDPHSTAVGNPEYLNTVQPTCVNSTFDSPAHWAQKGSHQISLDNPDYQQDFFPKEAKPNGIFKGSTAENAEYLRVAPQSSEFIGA
CLK1, sequence (P49759 whole entry, canonical isoform): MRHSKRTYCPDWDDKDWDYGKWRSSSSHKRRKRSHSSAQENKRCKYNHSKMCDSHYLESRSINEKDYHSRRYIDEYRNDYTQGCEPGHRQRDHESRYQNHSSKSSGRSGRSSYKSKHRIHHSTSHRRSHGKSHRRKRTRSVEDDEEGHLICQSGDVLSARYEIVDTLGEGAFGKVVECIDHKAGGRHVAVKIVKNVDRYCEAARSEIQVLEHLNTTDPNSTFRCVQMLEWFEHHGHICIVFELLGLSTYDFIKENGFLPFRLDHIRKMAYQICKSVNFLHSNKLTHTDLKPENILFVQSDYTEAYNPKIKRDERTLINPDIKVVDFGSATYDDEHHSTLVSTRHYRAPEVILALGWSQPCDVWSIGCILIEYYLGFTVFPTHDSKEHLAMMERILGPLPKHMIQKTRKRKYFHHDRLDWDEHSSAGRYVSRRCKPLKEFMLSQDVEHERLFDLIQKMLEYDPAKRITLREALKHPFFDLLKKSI

Molecule: CCOC(=O)c1nn(C)c2c1-c1ccc3c(c1)c(nn3C1CCCCO1)/C=C/c1c(OCC)nn(CCO[Si](C)(C)C(C)(C)C)c1CN(CC)C[C@H](C)O2 (stereo partly drawn)
ring closure, isolated yield ([1]; from ethyl 5-[(1S)-2-[[2-[2-[tert-butyl(dimethyl)silyl]oxyethyl]-5-ethoxy-4-iodo-pyrazol-3-yl]methyl-ethyl-amino]-1-methyl-ethoxy]-1-methyl-4-(1-tetrahydropyran-2-yl-3-vinyl-indazol-5-yl) pyrazole-3-carboxylate, 15-membered ring, Pd(OAc)2/TBAC/NaHCO3, DMF, 67.4 mM, 120.0 °C): 77%

Molecule: CCOc1nn(CCO)c2c1/C=C/c1nn(C3CCCCO3)c3cc(F)c(cc13)-c1cnn(C)c1O[C@@H]1CCCN(C2)C1 (stereo partly drawn)
ring closure, isolated yield ([1]; from CCOc1nn(CCO)c(CN2CCC[C@@H](Oc3c(-c4cc5c(/C=C/B6OC(C)(C)C(C)(C)O6)nn(C6CCCCO6)c5cc4F)cnn3C)C2)c1I, 15-membered ring, CataCXium A Pd G3/K3PO4, dioxane, 112.0 mM, 90.0 °C, 2.0 h): 42%

Molecule: CCOc1nn(CCO[Si](C)(C)C(C)(C)C)c2c1/C=C/c1nn(C3CCCCO3)c3cc(F)c(cc13)-c1c(C)nn(C)c1O[C@@H](C)CN(C(C)C)C2 (stereo partly drawn)
ring closure, isolated yield ([1]; from C=Cc1nn(C2CCCCO2)c2cc(F)c(-c3c(C)nn(C)c3O[C@@H](C)CN(Cc3c(I)c(OCC)nn3CCO[Si](C)(C)C(C)(C)C)C(C)C)cc12, 15-membered ring, Pd(OAc)2/TBAC/NaHCO3, DMF, 96.7 mM, 140.0 °C, 1.0 h): 84%

Molecule: CCOc1nn(CCO[Si](C)(C)C(C)(C)C)c2c1C=Cc1nn(C3CCCCO3)c3ccc(cc13)-c1cnn(C)c1O[C@H](CC)CN(C)C2 (stereo partly drawn)
ring closure, crude yield [2]: 62%

Molecule: COC(=O)[C@H]1CN(C)Cc2c(c(OC(C)C)nn2CCO[Si](C)(C)C(C)(C)C)/C=C/c2nn(C3CCCCO3)c3ccc(cc23)-c2cnn(C)c2O1 (stereo partly drawn)
ring closure, isolated yield ([1]; from C=Cc1nn(C2CCCCO2)c2ccc(-c3cnn(C)c3O[C@H](CN(C)Cc3c(I)c(OC(C)C)nn3CCO[Si](C)(C)C(C)(C)C)C(=O)OC)cc12, 15-membered ring, Pd(OAc)2/TBAC/TEA, DMF, 11.6 mM, 100.0 °C, 2.0 h): 47%

Molecule: Cc1c2c(nn1C)C=Cc1nn(C3CCCCO3)c3ccc(cc13)-c1cnn(C)c1O[C@@H](C)CN(C)C2 (stereo partly drawn)
ring closure, isolated yield ([1]; from Cc1c(CN(C)C[C@H](C)Oc2c(-c3ccc4c(c3)c(/C=C/B3OC(C)(C)C(C)(C)O3)nn4C3CCCCO3)cnn2C)c(I)nn1C, 15-membered ring, BrettPhos Pd G4/Na2CO3 aq, dioxane/H2O, 24.8 mM, 80.0 °C, 2.0 h): 58%

Molecule: Cc1n[nH]c2c1/C=C/c1nn(C3CCCCO3)c3ccc(cc13)-c1cnn(C)c1CN(C(=O)OC(C)(C)C)CCO2 (stereo not drawn)
ring closure, isolated yield ([1]; from tert-butyl N-[2-[(4-iodo-3-methyl-1H-pyrazol-5-yl)oxy]ethyl]-N-[[2-methyl-4-[1-tetrahydropyran-2-yl-3-[(E)-2-(4,4,5,5-tetramethyl-1,3,2-dioxaborolan-2-yl)vinyl]indazol-5-yl]pyrazol-3-yl]methylicarbamate, 15-membered ring): 54%

Molecule: Cc1nn(C)c2c1/C=C/c1nn(C3CCCCO3)c3ccc(cc13)-c1cnn(C)c1CN(C)CC(C)O2 (stereo not drawn)
ring closure, isolated yield ([1]; from Cc1nn(C)c(OC(C)CN(C)Cc2c(-c3ccc4c(c3)c(/C=C/B3OC(C)(C)C(C)(C)O3)nn4C3CCCCO3)cnn2C)c1I, 15-membered ring, XPhos Pd G4/K3PO4, DMA, 66.5 mM, 80.0 °C, 2.0 h): 24%

Molecule: Cc1nn(C)c2c1C=Cc1nn(C3CCCCO3)c3ccc(cc13)-c1cnn(C)c1OCCOC2 (stereo not drawn)
ring closure, isolated yield ([1]; from Cc1nn(C)c(COCCOc2c(-c3ccc4c(c3)c(/C=C/B3OC(C)(C)C(C)(C)O3)nn4C3CCCCO3)cnn2C)c1I, 15-membered ring, Pd XPhos G4/K3PO4, DMA/H2O, 55.3 mM, 90.0 °C, 3.0 h): 14.2%

Molecule: Cn1ncc2c1OCCN1CC[C@@H](Oc3cc(Cl)ccc3C=Cc3nn(C4CCCCO4)c4ccc-2cc34)C1=O (stereo partly drawn)
ring closure, isolated yield ([1]; from Cn1ncc(-c2ccc3c(c2)c(/C=C/B2OC(C)(C)C(C)(C)O2)nn3C2CCCCO2)c1OCCN1CC[C@@H](Oc2cc(Br)ccc2I)C1=O, 17-membered ring, Pd(dppf)Cl2.CH2Cl2/K2CO3, dioxane/H2O 5:1, 19.4 mM, 90.0 °C, 2.0 h): 38%

Molecule: Cn1ncc2c1OCCN1CC[C@@H](Oc3ccccc3/C=C/c3nn(C4CCCCO4)c4ccc-2cc34)C1=O (stereo partly drawn)
ring closure, isolated yield ([1]; from Cn1ncc(-c2ccc3c(c2)c(/C=C/B2OC(C)(C)C(C)(C)O2)nn3C2CCCCO2)c1OCCN1CC[C@@H](Oc2ccccc2I)C1=O, 17-membered ring, XPhos Pd G4/K3PO4, DMA, 25.0 mM, 80.0 °C, 2.0 h): 36%

Molecule: 2-[(17E)-5,15-dimethyl-21-tetrahydropyran-2-yl-7,10-dioxa-4,5,13,14,20,21-hexazapentacyclo[17.5.2.0^2,6.0^12,160.0^22,26]hexacosa-1(25),2(6),3,12(16),14,17,19,22(26),23-nonaen-13-yl]acetic acid
ring closure, yield after HPLC [3]: 30%

IC50 [4]: 0.77 nM | IC50 [5]: 1.49 nM | IC50 [6]: 0.13 nM | IC50 [7]: 0.11 nM | IC50 [8]: 0.22 nM | IC50 [9]: 0.9 nM | IC50 [10]: 0.55 nM | IC50 [11]: 0.41 nM | IC50 [12]: 0.45 nM | IC50 [13]: 0.08 nM | IC50 [14]: 42 nM | IC50 [15]: 1.39 nM
Molecule: CCN1Cc2c(c(OC(C)C)nn2CC(N)=O)/C=C/c2n[nH]c3ccc(cc23)-c2cnn(C)c2O[C@@H](C)C1 [Example 232, 2-{(10S,17E)-12-ethyl-8,10-dimethyl-16-[(propan-2-yl)oxy]-2,8,10,11,12,13-hexahydro-14H-3,5-ethenotripyrazolo[3,4-f:3′,4′-j:4″,3″-n][1,4]oxazacyclopentadecin-14-yl}acetamide]
